We go through 5 compounds from US4396543A.

Molecules are shown by their SMILES. Values after ≈ are worked out from the molar mass of the structure shown. Values joined by “and” are separate entries in the source; they are usually repeats but may differ in a detail not shown here. Equal values may be shown once. Some results are limits rather than exact numbers.

The subject of series [1] is Staphylococcus aureus V41. Nature of the series: agar-dilution MIC. Format: cell-based. The conditions noted are these: Staphylococcus aureus V41, penicillin-resistant strain; two values = two experiments; 2 median of five, 19 median of three.
Experimental: (§1) In Table VII activity is measured by the minimal inhibitory concentration (MIC), i.e. the lowest concentration of compound at which growth of the microorganism is inhibited by the test compound.
Series [2] deals with Staphylococcus epidermidis EPI2. Nature of the series: agar-dilution MIC. Format: cell-based. The conditions noted are these: two values = two experiments, 2 median of five, 19 median of three.
Another series has as its system Streptococcus pyogenes. Nature of the series: in vivo experimental bacterial infection, ED50. To be noted: mice; for ED50 Values Streptococcus pyogenes Oral: two doses orally; for ED50 Values Streptococcus pyogenes Subcutaneous: two doses subcutaneously, two values = two experiments.
Series [3] deals with Staphylococcus aureus X400. In words: agar-dilution MIC. In kind it is cell-based. To be noted: Staphylococcus aureus X400, methicillin-resistant strain; two values = two experiments; 2 median of five, 19 median of three.
Experimental: as §1
Series [4] deals with Streptococcus Group D X66. In words: agar-dilution MIC. In kind it is cell-based. The conditions noted are these: two values = two experiments, 2 median of five, 19 median of three.
Experimental: as §1
Series [5] concerns Streptococcus pneumoniae Park I. In kind it is cell-based. To be noted: two values = two experiments, 2 median of five, 19 median of three.
Experimental: as §1
The test system of series [6] is Streptococcus pyogenes C203. In words: agar-dilution MIC. The conditions noted are these: two values = two experiments, 2 median of five, 19 median of three. Format: cell-based.
A further series is described as follows: toxicity test, LD50. The conditions noted are these: mouse, in vivo, iv; administered intravenously; read-out: LD50 (mg/kg) in Mice.
Series [7] relates to Staphylococcus epidermidis EPI1. In kind it is cell-based. To be noted: two values = two experiments, 2 median of five, 19 median of three.
The test system of series [8] is Streptococcus Group D 9960. Nature of the series: agar-dilution MIC. Format: cell-based. The conditions noted are these: two values = two experiments, 2 median of five, 19 median of three.
Experimental: as §1
In series [9] the test system is Staphylococcus aureus X1.1. Nature of the series: agar-dilution MIC. In kind it is cell-based. To be noted: two values = two experiments, 2 median of five, 19 median of three experiments.
Experimental: as §1
A further series deals with Staphylococcus aureus. Nature of the series: in vivo experimental bacterial infection, ED50. To be noted: mice, two doses subcutaneously; two values = two experiments.

As a reminder, the MIC is the least concentration at which growth counts as inhibited. Higher therefore signals weaker potency. For `CCCCCCCCCCCC(=O)Nc1cccc(C(=O)N[C@@H](Cc2c[nH]c3ccccc23)C(=O)N[C@H](CC(N)=O)C(=O)N[C@@H](CC(=O)O)C(=O)N[C@@H]2C(=O)NCC(=O)N[C@@H](CCCN)C(=O)N[C@@H](CC(=O)O)C(=O)N[C@H](C)C(=O)N[C@@H](CC(=O)O)C(=O)NCC(=O)N[C@H](CO)C(=O)N[C@@H]([C@H](C)CC(=O)O)C(=O)N[C@@H](CC(=O)c3ccccc3N)C(=O)O[C@@H]2C)c1` [Compound 5], the MIC is 0.5 µg/mL (≈ 0.283 µM) in [1]; 1 µg/mL (≈ 0.566 µM) in series [2]; 1 µg/mL (≈ 0.566 µM) in [3]; 4 µg/mL (≈ 2.26 µM) in series [4]; 0.25 µg/mL (≈ 0.141 µM) in series [5]; 0.25 µg/mL (≈ 0.141 µM) in [6]. For the same compound, the results for the MIC in series [7], in [8] and in series [9] were 2 µg/mL (≈ 1.13 µM), 1 µg/mL (≈ 0.566 µM) and 0.5 µg/mL (≈ 0.283 µM), respectively. In addition, the “ED50 Values Streptococcus pyogenes Oral” value in the series with Streptococcus pyogenes is listed as > 200 mg/kg × 2. The “ED50 Values Streptococcus pyogenes Subcutaneous” value in the series with Streptococcus pyogenes is > 0.25 mg/kg × 2 and 0.46 mg/kg × 2. In addition, the LD50 in the series “toxicity test, LD50” is 277 mg/kg. Moreover, the “ED50 Values Staphylococcus aureus Subcutaneous” value in the series on Staphylococcus aureus is reported as 1.67 mg/kg × 2.
`CCCCCCCCCCCC(=O)NCCCCCCCCCCC(=O)N[C@@H](Cc1c[nH]c2ccccc12)C(=O)N[C@H](CC(N)=O)C(=O)N[C@@H](CC(=O)O)C(=O)N[C@@H]1C(=O)NCC(=O)N[C@@H](CCCN)C(=O)N[C@@H](CC(=O)O)C(=O)N[C@H](C)C(=O)N[C@@H](CC(=O)O)C(=O)NCC(=O)N[C@H](CO)C(=O)N[C@@H]([C@H](C)CC(=O)O)C(=O)N[C@@H](CC(=O)c2ccccc2N)C(=O)O[C@@H]1C` [Compound 3]: the MIC in [1] stood at 2 µg/mL (≈ 1.09 µM); in series [2] it was 8 µg/mL (≈ 4.37 µM); in series [3], 8 µg/mL (≈ 4.37 µM); in series [4], 8 µg/mL (≈ 4.37 µM); in [5], 0.5 µg/mL (≈ 0.273 µM); in series [6] it was 2 µg/mL (≈ 1.09 µM). Besides, the MIC is 8 µg/mL (≈ 4.37 µM) in series [7], 8 µg/mL (≈ 4.37 µM) in series [8] and 2 µg/mL (≈ 1.09 µM) in series [9]. In addition, in the series with Streptococcus pyogenes, the “ED50 Values Streptococcus pyogenes Oral” value is listed as > 200 mg/kg × 2. Besides, in the series with Streptococcus pyogenes, the “ED50 Values Streptococcus pyogenes Subcutaneous” value was found to be 6.2 mg/kg × 2. The LD50 in the series “toxicity test, LD50” worked out at 600 mg/kg. Further, the “ED50 Values Staphylococcus aureus Subcutaneous” value in the series with Staphylococcus aureus is > 18 mg/kg × 2.
Consider `CCCCCCCCCCCC(=O)NCCCCC(=O)N[C@@H](Cc1c[nH]c2ccccc12)C(=O)N[C@H](CC(N)=O)C(=O)N[C@@H](CC(=O)O)C(=O)N[C@@H]1C(=O)NCC(=O)N[C@@H](CCCN)C(=O)N[C@@H](CC(=O)O)C(=O)N[C@H](C)C(=O)N[C@@H](CC(=O)O)C(=O)NCC(=O)N[C@H](CO)C(=O)N[C@@H]([C@H](C)CC(=O)O)C(=O)N[C@@H](CC(=O)c2ccccc2N)C(=O)O[C@@H]1C` [Compound 2], for which the MIC worked out at 4 µg/mL (≈ 2.29 µM) in [1]; 2 µg/mL (≈ 1.14 µM) in series [2]; 4 µg/mL (≈ 2.29 µM) in series [3]; 32 µg/mL (≈ 18.3 µM) in series [4]; 4 µg/mL (≈ 2.29 µM) in [5]; 1 µg/mL (≈ 0.572 µM) in series [6]. In addition, the MIC was found to be 4 µg/mL (≈ 2.29 µM) in [7], 8 µg/mL (≈ 4.58 µM) in series [8] and 4 µg/mL (≈ 2.29 µM) in series [9]. Also, the “ED50 Values Streptococcus pyogenes Oral” value with Streptococcus pyogenes is 117 mg/kg × 2. Further, the LD50 in “toxicity test, LD50” is > 600 mg/kg. Besides, the “ED50 Values Staphylococcus aureus Subcutaneous” value in the series on Staphylococcus aureus is 0.65 mg/kg × 2 and 0.93 mg/kg × 2.
Regarding `CCCCCCC(=O)NCCCCCCCCCCC(=O)N[C@@H](Cc1c[nH]c2ccccc12)C(=O)N[C@H](CC(N)=O)C(=O)N[C@@H](CC(=O)O)C(=O)N[C@@H]1C(=O)NCC(=O)N[C@@H](CCCN)C(=O)N[C@@H](CC(=O)O)C(=O)N[C@H](C)C(=O)N[C@@H](CC(=O)O)C(=O)NCC(=O)N[C@H](CO)C(=O)N[C@@H]([C@H](C)CC(=O)O)C(=O)N[C@@H](CC(=O)c2ccccc2N)C(=O)O[C@@H]1C` [Compound 14], the MIC in series [1] was 4 µg/mL (≈ 2.27 µM); in series [2] it was 8 µg/mL (≈ 4.54 µM); in series [3] it was 8 µg/mL (≈ 4.54 µM); in series [4], > 128 µg/mL; in series [5], 8 µg/mL (≈ 4.54 µM); in series [6], 2 µg/mL (≈ 1.14 µM). In addition, the values for the MIC in series [7], in series [8] and in series [9] were 8 µg/mL (≈ 4.54 µM), 64 µg/mL (≈ 36.3 µM) and 4 µg/mL (≈ 2.27 µM), respectively. The “ED50 Values Streptococcus pyogenes Oral” value in the series on Streptococcus pyogenes is > 200 mg/kg × 2. Further, the “ED50 Values Streptococcus pyogenes Subcutaneous” value in the series on Streptococcus pyogenes is on record as > 9 mg/kg × 2. In addition, the LD50 in “toxicity test, LD50” was > 600 mg/kg. Moreover, the “ED50 Values Staphylococcus aureus Subcutaneous” value in the series with Staphylococcus aureus is given as > 18 mg/kg × 2.
With `CCCCCCCCCCCC(=O)N[C@@H](Cc1c[nH]c2ccccc12)C(=O)N[C@@H](Cc1c[nH]c2ccccc12)C(=O)N[C@H](CC(N)=O)C(=O)N[C@@H](CC(=O)O)C(=O)N[C@@H]1C(=O)NCC(=O)N[C@@H](CCCN)C(=O)N[C@@H](CC(=O)O)C(=O)N[C@H](C)C(=O)N[C@@H](CC(=O)O)C(=O)NCC(=O)N[C@H](CO)C(=O)N[C@@H]([C@H](C)CC(=O)O)C(=O)N[C@@H](CC(=O)c2ccccc2N)C(=O)O[C@@H]1C` [Compound 24], the MIC in series [1] turned out to be 2 µg/mL (≈ 1.09 µM); in series [2] it was 4 µg/mL (≈ 2.18 µM); in series [3] it was 4 µg/mL (≈ 2.18 µM); in series [4], 16 µg/mL (≈ 8.72 µM); in [5] it was 1 µg/mL (≈ 0.545 µM); in [6] it was 2 µg/mL (≈ 1.09 µM). Besides, the values for the MIC in series [7], in series [8] and in series [9] were 4 µg/mL (≈ 2.18 µM), 4 µg/mL (≈ 2.18 µM) and 1 µg/mL (≈ 0.545 µM), respectively. In addition, the “ED50 Values Streptococcus pyogenes Oral” value in the series on Streptococcus pyogenes is given as > 200 mg/kg × 2. For the same compound, the LD50 in “toxicity test, LD50” was 450 mg/kg. Also, the “ED50 Values Staphylococcus aureus Subcutaneous” value in the series on Staphylococcus aureus was 2.3 mg/kg × 2.
